The source made the active and inactive calls. No cut-off for these calls is given here.
Experiments:
Rattus norvegicus [1] = test: Antiulcerogenic activity in Wistar rat assessed as cytoprotection against ethanol-induced gastric lesions at 40 mg/kg administered 60 mins before ethanol challenge; type: functional, organism-based; set-up: dose 40 mg/kg; conditions: Stomach
Rattus norvegicus [2] = test: Antiulcerogenic activity in Wistar rat assessed as cytoprotection against ethanol-induced gastric lesions administered 60 mins before ethanol challenge; type: functional, organism-based; conditions: Stomach

SMILES | Activity (Rattus norvegicus [1]) | Activity (Rattus norvegicus [2])
C=C1C(=O)O[C@H]2[C@H]1CCC(C)=C1C[C@H]3O[C@@]3(C)[C@@H]12 | Active | –
C=C1C(=O)O[C@H]2C[C@@H](C)[C@@H]3C=CC(=O)[C@@]3(C)[C@H](O)[C@H]12 | Active | –
C=C1C(=O)O[C@@H]2[C@H]3C(=C)[C@@H](O)C[C@H]3C(=C)C[C@H](OC(=O)/C(C)=C\C)[C@@H]12 | Active | –
C=C1C(=O)O[C@@H]2[C@H]1CC[C@H](C)[C@@]1(O)C=CC(=O)[C@@]21C | Active | Dose-dependent effect
C=C1C(=O)O[C@H]2[C@H](O)[C@@H](C)[C@@H]3[C@@H](OC(=O)/C(C)=C\C)C[C@H](O)[C@@]3(C)[C@H](OC(C)=O)[C@H]12 | Active | –
C=C1C(=O)O[C@@H]2[C@H]3C(C)=CC(=O)C3=C(C)CC[C@@H]12 | Active | Dose-dependent effect
C=C1C(=O)O[C@@H]2C[C@@H](C)[C@@H]3C=CC(=O)[C@@]3(C)[C@@H](O)[C@H]12 | Active | –
CC1=CC(=O)C2=C(C)CC[C@@H]3[C@H](OC(=O)[C@H]3C)[C@@H]12 | inactive | –
